Values of other authors, collected in patent US20260216277A1, “TOPICAL COMPOSITIONS AND METHODS FOR TREATING ALOPECIA” (priority 2023, published 2026).

Test system: radiation-induced alopecia
Conditions: whole brain radiotherapy

CC1(C)CC(O)CC(C)(C)N1[O] [Tempol, 4-hydroxy-2,2,6,6-tetramethylpiperidine-1-oxyl]
Safety and tolerability of topical application to the scalp before radiation: relatively safe and well tolerated
